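In this assay, cells in 96-well plates receive the compound at five concentrations for 48 hours. Endpoints are linearly interpolated between the surrounding concentrations. GI50 marks 50% less growth.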 The source made the active and inactive calls. No stated cut-off is given here; in the data, active = GI50 up to about 1.1 µM and inactive = higher.
How the values were obtained:
Experiment in all cases: inhibition of tumour cell growth, NCI panel, 48 h
NCI/ADR-RES = tested on: NCI/ADR-RES
A549 = tested on: A549
SK-MEL-2 = tested on: SK-MEL-2
IGROV-1 = tested on: IGROV-1
NCI-H226 = tested on: NCI-H226
PC-3 = tested on: PC-3
RXF 393 = tested on: RXF 393
SN12C = tested on: SN12C
BT-549 = tested on: BT-549
MDA-N = tested on: MDA-N
SF-268 = tested on: SF-268
HOP-62 = tested on: HOP-62
SNB-75 = tested on: SNB-75
OVCAR-5 = tested on: OVCAR-5
HL-60 = tested on: HL-60
MCF7 = tested on: MCF7
UACC-62 = tested on: UACC-62
KM12 = tested on: KM12
SNB-19 = tested on: SNB-19

SMILES	GI50 (NCI/ADR-RES)	GI50 (A549)	GI50 (SK-MEL-2)	GI50 (IGROV-1)	GI50 (NCI-H226)	GI50 (PC-3)	GI50 (RXF 393)	GI50 (SN12C)	GI50 (BT-549)	GI50 (MDA-N)	GI50 (SF-268)	GI50 (HOP-62)	GI50 (SNB-75)	GI50 (OVCAR-5)	GI50 (HL-60)	GI50 (MCF7)	GI50 (UACC-62)	GI50 (KM12)	GI50 (SNB-19)
c1ccc2nn(C3CCCO3)nc2c1 (stereo not given)	> 100 µM (inactive)	> 100 µM (inactive)	> 100 µM (inactive)	> 100 µM (inactive)	> 100 µM (inactive)	> 100 µM (inactive)	> 100 µM (inactive)	> 100 µM (inactive)	> 100 µM (inactive)	> 100 µM (inactive)	> 100 µM (inactive)	> 100 µM (inactive)	> 100 µM (inactive)	> 100 µM (inactive)	> 100 µM (inactive)	> 100 µM (inactive)	> 100 µM (inactive)	–	–
COc1cc(/C=N\c2nc(-c3ccc(NS(=O)(=O)c4ccc(Cl)c(OC)c4)cc3)cs2)ccc1O	> 100 µM (inactive)	74.6 µM (inactive)	32.2 µM (inactive)	43.3 µM (inactive)	> 100 µM (inactive)	50.8 µM (inactive)	27.9 µM (inactive)	42.3 µM (inactive)	28.8 µM (inactive)	29.6 µM (inactive)	37.6 µM (inactive)	> 100 µM (inactive)	89.5 µM (inactive)	> 100 µM (inactive)	26.1 µM (inactive)	21 µM (inactive)	9.71 µM (inactive)	29.2 µM (inactive)	> 100 µM (inactive)
O=P(Nc1ccccc1)(Oc1ccccc1)N1CCN(c2ccccc2)CC1 (stereo not given)	17.6 µM (inactive)	17.5 µM (inactive)	20.9 µM (inactive)	20.8 µM (inactive)	22.3 µM (inactive)	18.1 µM (inactive)	18.2 µM (inactive)	17.8 µM (inactive)	16 µM (inactive)	16.9 µM (inactive)	23.2 µM (inactive)	18 µM (inactive)	15.2 µM (inactive)	17.9 µM (inactive)	25 µM (inactive)	17.2 µM (inactive)	12.7 µM (inactive)	17.4 µM (inactive)	15.8 µM (inactive)
O=C(Cc1ccc(Cl)c(Cl)c1)N(CCc1ccc(Cl)c(Cl)c1)CCN1CCCC1	2.04 µM (inactive)	2.01 µM (inactive)	1.8 µM (inactive)	1.74 µM (inactive)	2.01 µM (inactive)	1.83 µM (inactive)	1.71 µM (inactive)	1.73 µM (inactive)	2.63 µM (inactive)	1.67 µM (inactive)	2.15 µM (inactive)	1.79 µM (inactive)	2.05 µM (inactive)	1.8 µM (inactive)	1.42 µM (inactive)	1.73 µM (inactive)	1.78 µM (inactive)	1.79 µM (inactive)	2.15 µM (inactive)
Cc1cc(=O)nc(Sc2ccc([N+](=O)[O-])cc2[N+](=O)[O-])[nH]1	30.4 µM (inactive)	18.5 µM (inactive)	20.6 µM (inactive)	80.2 µM (inactive)	19.7 µM (inactive)	22.2 µM (inactive)	12.9 µM (inactive)	10.8 µM (inactive)	12.8 µM (inactive)	16.7 µM (inactive)	24.4 µM (inactive)	24.5 µM (inactive)	1.53 µM (inactive)	17.9 µM (inactive)	3.33 µM (inactive)	14.4 µM (inactive)	17.3 µM (inactive)	22.2 µM (inactive)	26.1 µM (inactive)
O=C1C(NS(=O)(=O)c2ccccc2)=C(n2cnc3ccccc32)C(=O)c2ccccc21	> 100 µM (inactive)	> 100 µM (inactive)	> 100 µM (inactive)	52.8 µM (inactive)	> 100 µM (inactive)	> 100 µM (inactive)	16 µM (inactive)	> 100 µM (inactive)	4.66 µM (inactive)	> 100 µM (inactive)	86.3 µM (inactive)	32.4 µM (inactive)	30.3 µM (inactive)	> 100 µM (inactive)	> 100 µM (inactive)	> 100 µM (inactive)	47.3 µM (inactive)	> 100 µM (inactive)	38.4 µM (inactive)
CCN1CC2=C(NC(=S)NC2c2ccc(Cl)cc2)/C(=C/c2ccc(Cl)cc2)C1 (stereo not given)	> 100 µM (inactive)	29.7 µM (inactive)	> 100 µM (inactive)	42 µM (inactive)	> 100 µM (inactive)	46.5 µM (inactive)	> 100 µM (inactive)	–	> 100 µM (inactive)	> 100 µM (inactive)	77.4 µM (inactive)	> 100 µM (inactive)	23.1 µM (inactive)	> 100 µM (inactive)	23.7 µM (inactive)	> 100 µM (inactive)	29.3 µM (inactive)	> 100 µM (inactive)	68.9 µM (inactive)
COc1ccc(/N=N/C(=O)NC(CC(C)C)C(=O)NC(Cc2ccccc2)C(=O)O)cc1 (stereo not given)	> 100 µM (inactive)	2.12 µM (inactive)	–	11.5 µM (inactive)	23.3 µM (inactive)	0.463 µM (active)	> 100 µM (inactive)	> 100 µM (inactive)	> 100 µM (inactive)	0.7 µM (active)	1.53 µM (inactive)	> 100 µM (inactive)	61.4 µM (inactive)	1.88 µM (inactive)	0.685 µM (active)	18.3 µM (inactive)	0.711 µM (active)	11.9 µM (inactive)	72.9 µM (inactive)
COc1ccc(/N=N/C(=O)NC(Cc2ccccc2)C(=O)O)cc1 (stereo not given)	> 100 µM (inactive)	> 100 µM (inactive)	> 100 µM (inactive)	> 100 µM (inactive)	> 100 µM (inactive)	95.7 µM (inactive)	> 100 µM (inactive)	> 100 µM (inactive)	> 100 µM (inactive)	> 100 µM (inactive)	> 100 µM (inactive)	> 100 µM (inactive)	> 100 µM (inactive)	> 100 µM (inactive)	> 100 µM (inactive)	> 100 µM (inactive)	87.9 µM (inactive)	> 100 µM (inactive)	> 100 µM (inactive)
CC[C@@H]1CSC(/C=C/C2OC3OC(C)(C)OC3C3OC(C)(C)OC23)=N1 (stereo not given in full)	12.7 µM (inactive)	22.5 µM (inactive)	14.1 µM (inactive)	10.3 µM (inactive)	16.4 µM (inactive)	8.2 µM (inactive)	3.4 µM (inactive)	11.1 µM (inactive)	3.58 µM (inactive)	4.5 µM (inactive)	6.03 µM (inactive)	22.9 µM (inactive)	15 µM (inactive)	7.91 µM (inactive)	2.34 µM (inactive)	4.58 µM (inactive)	13.9 µM (inactive)	13.6 µM (inactive)	20.4 µM (inactive)
COc1cc2c(NCCCCCO)ncnc2c(OC)c1OC	> 100 µM (inactive)	> 100 µM (inactive)	> 100 µM (inactive)	> 100 µM (inactive)	43.9 µM (inactive)	> 100 µM (inactive)	> 100 µM (inactive)	> 100 µM (inactive)	> 100 µM (inactive)	> 100 µM (inactive)	> 100 µM (inactive)	> 100 µM (inactive)	> 100 µM (inactive)	> 100 µM (inactive)	> 100 µM (inactive)	> 100 µM (inactive)	> 100 µM (inactive)	> 100 µM (inactive)	> 100 µM (inactive)

Source: ChEMBL document CHEMBL1201862, “PubChem BioAssay data set” (2004)
